Reference: publication PMC3574224, “Na^+ Regulation in the Malaria Parasite Plasmodiumfalciparum Involves the Cation ATPase PfATP4 and Is a Target of the Spiroindolone Antimalarials” (Cell Host & Microbe, 2013)

What was measured:
[1] = test system: P. falciparum 3D7 trophozoites; experiment: microbe, parasite or virus in culture; format: cell-based, Plasmodium falciparum; settings: for Rate of increase of [Na^+]i at maximally effective concentrations: maximally effective concentration; for IC50: Plasmodium falciparum, concentration causing [Na^+]i to increase from resting value at half the maximal rate, from fitted curves, read-out: IC50 for disruption of Na^+ regulation
Protocol: P. falciparum strains 3D7, Dd2, NITD609-R^Dd2 clone #2, Dd2^attB, and Dd2^attB CAM I398F/P990R were cultured under shaking conditions as described elsewhere ([Allen and Kirk, 2010]). Cultures were synchronized 24 hr before experimentation using 5% w/v sorbitol ([Lambros and Vanderberg, 1979]). All experiments were conducted on mature trophozoite-stage parasites (36–40 hr postinvasion) functionally isolated from their host erythrocytes by permeabilization of the erythrocyte and parasitophorous vacuole membranes by brief exposure to saponin (0.05% w/v) as described previously ([Spillman et al., 2008]).
(§1) The [Na^+]i of saponin-isolated parasites was measured at 37°C using the Na^+-sensitive dye SBFI (Molecular Probes, Invitrogen) in conjunction with a PerkinElmer LS 50B Fluorescence Spectrometer fitted with a Dual Excitation Fast Filter. Saponin-isolated parasites were loaded with SBFI by suspension (at 1.40–1.80 × 10^8 cells/mL) for 20 min at 37°C in bicarbonate-free RPMI1640 supplemented with 20 mM D-glucose, 0.2 mM hypoxanthine, 25 mM HEPES, and 25 mg/L gentamycin sulfate (pH 7.10), to which SBFI-acetoxymethyl ester (5.5 μM) and Pluronic F-127 (0.01% w/v) were added. The dye-loaded cells were washed twice (12,000 × g, 0.5 min) in bicarbonate-free RPMI then incubated for a further 20 min at 37°C to allow for complete de-esterification of the dye before being resuspended at a final cell concentration of 1.5–2.5 × 10^7 cells/mL in standard saline. The dye-loaded cells were excited at 340 nm and 380 nm with fluorescence recorded at 490 nm. Calibration of the relationship between the 340/380 nm fluorescence ratio and [Na^+]i (see Figures S1A–S1C) was carried out as described previously ([Diarra et al., 2001]; [Harootunian et al., 1989]).
The initial Na^+ influx rate (at t = 0) is a × Δ[Na^+]i^max.
(§2) Dose-response curves were obtained using the expression y = y^min + y^max/(1 + [C/IC50]^b), where y is the parameter being measured (parasite proliferation, Na^+ influx, or ATPase activity), y^min is the minimum value of y, y^max is the maximum value of y, C is the concentration of the moiety that was varied in the experiment, IC50 is the concentration at which y was reduced to 50% of y^max, and b is a fitted constant.

P. falciparum parasites = experiment: Parasite proliferation, [^3H]hypoxanthine incorporation assay, 48 hr; format: cell-based; settings: Plasmodium falciparum; mean ± SEM, number of independent experiments in parentheses; read-out: IC50 for inhibition of parasite proliferation
Protocol: Parasite growth assays were performed in 96-well plates over 48 hr (commencing at the ring stage) using a standard [^3H]hypoxanthine incorporation assay ([Desjardins et al., 1979]).
as §2

[2] = test system: P. falciparum trophozoites; experiment: Recovery of [Na^+]i from an imposed intracellular Na^+ load (K^+ removal and restoration); format: cell-based, Plasmodium falciparum; settings: added with 10 mM KCl
Protocol: The mechanism responsible for the increase in [Na^+]i seen upon removal of extracellular K^+ was not investigated further here. However, the phenomenon does provide a useful means of imposing an intracellular Na^+ load on the parasite and of testing the effect of inhibitors on the net efflux of Na^+ from the Na^+-loaded parasite.
as §1, with “1989]). Several inhibitors used in this study caused inner filter effects ([Gu and Kenny, 2009]; [Srinivas and Mutharasan, 1987]); in these cases calibration curves were generated with the inhibitors present.” for “1989]).”
The rate of efflux of Na^+ from the cells, following an imposed intracellular Na^+ load, was estimated by fitting the following function to the [Na^+]i traces: [Na^+]i = Δ[Na^+]i^max × e^-at + [Na^+]i^final, where Δ[Na^+]i^max is the increase in [Na^+]i above the normal resting value (following the imposition of an intracellular Na^+-load), t is the time after the commencement of efflux (on addition of extracellular K^+), a is a fitted constant, and [Na^+]i^final is the final value of [Na^+]i. The initial Na^+ efflux rate (at t = 0) is a × Δ[Na^+]i^max, and the half-time to complete recovery (t1/2) is ln(0.5)/-a.

[3] = test system: P. falciparum trophozoites; experiment: Cytosolic [Ca^2+]i in fura-2-loaded saponin-isolated parasites; format: cell-based, Plasmodium falciparum; settings: 2 μM; medium containing 1 μM Ca^2+
Protocol: [Ca^2+]i was measured with the Ca^2+-sensitive indicator fura-2 (Molecular Probes, Invitrogen) using a loading protocol identical to that described for SBFI. Calibration was performed as described previously ([Alleva and Kirk, 2001]).

[4] = test system: P. falciparum trophozoites; experiment: Cytosolic pH (pHi) in BCECF-loaded saponin-isolated parasites; format: cell-based, Plasmodium falciparum
Protocol: pHi of saponin-isolated parasites was measured using the pH-sensitive indicator BCECF (Molecular Probes, Invitrogen) as described previously ([Saliba and Kirk, 1999]). […] Critical experiments performed using SBFI-loaded parasites were repeated with parasites loaded with BCECF.

[5] = 10 μM, on the timescale of the experiments

C[C@@H]1CCc2c([nH]c3ccccc23)[C@]2(N1)C(=O)Nc1ccc(Br)cc12 [NITD138]
Effect on resting [Na^+]i ([1]; 50 nM, 3D7, standard saline): little effect
Rate of increase of [Na^+]i at maximally effective concentrations [1]: did not reach the maximum value at the highest concentration tested
IC50 (P. falciparum parasites): 2300 ± 200 nM

NS(=O)(=O)c1cc(C(=O)O)c(NCc2ccco2)cc1Cl [Furosemide, reference compound]
Effect on recovery of [Na^+]i after Na^+ load ([2]; 100 μM): slowed

CC(=O)C1=C(O)[C@@H]2[C@H]3c4c[nH]c5cccc(c45)C[C@H]3C(C)(C)N2C1=O [CPA, cyclopiazonic acid, reference compound]
Effect on [Ca^2+]i [3]: transient increase in [Ca^2+]i
Effect on [Na^+]i ([1]; 40 μM): caused [Na^+]i to increase

Gramicidin [reference compound]
Effect on [Na^+]i ([1]; 5 μM, [Na^+]o 125 mM): rapid increase in [Na^+]i

[Na+].[Na+].[Na+].[O]=[V]([O-])([O-])[O-] [Sodium orthovanadate, reference compound]
Cytosolic pH (pHi) after addition ([4]; 100 μM, Na^+-dependent, increase from 7.28 ± 0.03, n = 6, p = 0.024): 7.36 ± 0.03
Effect on [Na^+]i ([1]; 100 μM): prolonged time-dependent increase
Rate of increase of [Na^+]i ([1]; 500 μM, n = 4): 0.13 ± 0.03 mM/s

C/C=C/[C@H]1O[C@@](O)([C@@H](C)[C@H](O)[C@H](C)[C@H]2OC(=O)/C(OC)=C/C(C)=C/[C@@H](C)[C@@H](O)[C@@H](CC)[C@@H](O)[C@H](C)C/C(C)=C/C=C/[C@@H]2OC)C[C@@H](O[C@H]2C[C@@H](O)[C@H](OC(N)=O)[C@@H](C)O2)[C@@H]1C [concanamycin A, reference compound]
Effect on pHi of parasites after NITD246- or orthovanadate-induced alkalinisation ([4]; 75 nM, pHi decreasing to below its normal resting value): immediate reversal of the alkalinisation

C[C@H]1CCc2c([nH]c3ccccc23)[C@@]2(N1)C(=O)Nc1ccc(Br)cc12 [NITD139]
Effect on resting [Na^+]i ([1]; 50 nM, 3D7, standard saline): immediate rapid increase in [Na^+]i
IC50 ([1]; 3D7, standard saline): 16.6 ± 5.7 nM
Rate of increase of [Na^+]i at maximally effective concentrations [1]: 0.098 ± 0.007 mM/s
IC50 (P. falciparum parasites): 4 ± 0.9 nM

CCN(c1nc(N)c(C(=O)NC(=N)N)nc1Cl)C(C)C [EIPA, ethylisopropylamiloride, reference compound]
Effect on resting [Na^+]i ([1]; 20 μM): Neither the Na^+/H^+ exchanger inhibitor ethylisopropylamiloride (EIPA; 20 μM) nor the Na^+/K^+-ATPase inhibitor ouabain (2 mM) had a significant effect
Effect on recovery of [Na^+]i after Na^+ load ([2]; 20 μM): unaffected

C[C@@H]1Cc2c([nH]c3cc(F)c(F)cc23)[C@]2(N1)C(=O)Nc1ccc(Cl)cc12 [NITD247]
Effect on resting [Na^+]i ([1]; 50 nM, 3D7, standard saline): little effect
IC50 ([1]; 3D7, standard saline): 407 ± 117 nM
Rate of increase of [Na^+]i at maximally effective concentrations [1]: 0.125 ± 0.013 mM/s
IC50 (P. falciparum parasites): 41.6 ± 5.8 nM

C[C@@H]1O[C@@H](O[C@H]2C[C@@H](O)[C@]3(CO)[C@H]4[C@H](O)C[C@]5(C)[C@@H](C6=CC(=O)OC6)CC[C@]5(O)[C@@H]4CC[C@]3(O)C2)[C@H](O)[C@H](O)[C@H]1O [ouabain, reference compound]
Effect on resting [Na^+]i ([1]; 2 mM): nor the Na^+/K^+-ATPase inhibitor ouabain (2 mM) had a significant effect

C[C@@H]1CC[C@H]2[C@@H](C)C(=O)O[C@@H]3O[C@@]4(C)CC[C@@H]1[C@]32OO4 [artemisinin, reference compound]
Effect on [Na^+]i [1, 5]: no effect

C/C=C(/C)C(=O)O[C@H]1C(C)=C2[C@H]([C@@H]1OC(=O)CCCCCCC)[C@@](C)(OC(C)=O)C[C@H](OC(=O)CCC)[C@@]1(O)[C@H]2OC(=O)[C@@]1(C)O [thapsigargin, reference compound]
Effect on [Na^+]i ([1]; 2 μM): little effect

CCN(CC)CCCC(C)Nc1ccnc2cc(Cl)ccc12 (stereo not shown) [chloroquine, reference compound]
Effect on [Na^+]i [1, 5]: no effect
